Reference: patent US8277860B2, “Method of stabilizing 1,4-dihydroxy-2-naphthoic acid” (Meiji Co., Ltd., priority 2003, dated 2012)

Tests used:
[1] = Nitrogen gas substitution test: DHNA content during preservation of DHNA-containing vegetable drink; type: physicochemical; conditions: vegetable drink with ascorbic acid; nitrogen bubbled until dissolved oxygen 5 ppm; pasteurized 140° C. 3 seconds; ordinary temperature (25° C.) preservation, 2 months
Procedure: (§1) A 5 ml portion of each sample was passed through a solid phase extraction column (Oasis HLB, manufactured by Waters Corporation) conditioned with 5 ml of methanol and 4 ml of 1% (w/v) sodium ascorbate aqueous solution. After washing with 5 ml of an aqueous solution of 1% (w/v) sodium ascorbate and elution with 4 ml of an aqueous solution of 10% (w/v) sodium ascorbate/methanol (1:9), the thus obtained eluate was concentrated under reduced pressure. A 1 ml portion thereof was sampled and filled up with the aforementioned sodium ascorbate-containing methanol. The mixture was filtered through a 0.5 μm filter and subjected to HPLC (column: Cadenza CD-C18 (4.6×150 mm, manufactured by Imtact Corporation), mobile phase: acetonitrile, methanol, water and acetic acid (10:20:200:0.1, vol/vol/vol/vol, adjusted to pH 7 with aqueous ammonia), detector: UV detector, detection wavelength: 254 nm, flow rate: 1.5 ml/min, column temperature: 45° C., sample injection: 20 μl). A calibration curve was prepared by preparing a 1 mg/ml (methanol solution) standard stock solution of a DHNA preparation (046-22422, manufactured by Wako Pure Chemical Industries, Ltd.) and using the solution after optionally diluting with methanol. […]

[2] = Nitrogen gas substitution test: DHNA content during preparation and preservation of DHNA-containing plain yogurt; type: physicochemical
Procedure: as §1, with “μl).” for “μl). A calibration curve was prepared by preparing a 1 mg/ml (methanol solution) standard stock solution of a DHNA preparation (046-22422, manufactured by Wako Pure Chemical Industries, Ltd.) and using the solution after optionally diluting with methanol.”
The DHNA content contained in the plain yogurt was measured in accordance with the aforementioned test example, at respective steps of before pasteurization of the mix, after pasteurization of the same, just after inoculation of the bulk starter and completion of the fermentation, and after the lapse of the preservation for 1 week and 2 weeks, according to the production of plain yogurt of this Example.

Compound: O=C(O)c1cc(O)c2ccccc2c1O [DHNA, 1,4-dihydroxy-2-naphthoic acid]
- reduction of the DHNA content during preservation [1]: can be inhibited for a prolonged period of time
- DHNA content after heat pasteurization in comparison with the content before heat pasteurization ([2]; control plain yogurt mix without nitrogen gas bubbling (dissolved oxygen about 10 ppm), heating at 95° C. for 5 minutes): about 30%
- loss of DHNA during the preparation and preservation ([2]; plain yogurt mix bubbled with nitrogen gas (dissolved oxygen less than 1 ppm), pasteurized 95° C. 5 minutes, fermented 43° C. 4 hours, preserved in the dark at 10° C. for 2 weeks): almost completely inhibited
